Measured values published in patent US11325893B2, “Hydrofluoroethers and methods of using same” (3M INNOVATIVE PROPERTIES COMPANY, priority 2018, dated 2022).

Assays:
rats [1] = assay: 4-hour acute inhalation toxicity in rats (LC-50); assay type: in vivo; conditions: 4 hr inhalation in air, 14-day post-dose monitoring
Protocol: The 4-hour acute inhalation toxicity in rats (LC-50) was measured by dosing animals in air at the amounts shown in Table 2 for 4 hours, followed by 14-day post-dose monitoring. Based on the animal test results and the vapor concentration of the test compound, the LC-50 values were estimated.

[2] = Log KOW (octanol/water partition coefficient) by HPLC, OECD Method 117; assay type: physicochemical
Protocol: In these Examples, values of Log KOW (octanol/water partition coefficients) were determined by HPLC using the method described in OECD Method 117.

rats [3] = assay: Acute single dose oral toxicity in rats; assay type: in vivo; conditions: single oral dose 2000 mg/kg body weight
Protocol: The acute single dose oral toxicity of Comparative Example CE2 was examined in rats dosed at 2000 mg/kg body weight. […] Based on this study, the LD50 of CE2 was estimated to be >2000 mg/kg body weight.

| Compound | LC-50 (4 hr Inhalation rats) (rats [1]) | Log KOW [2] | clinical observations during the post dose recovery period (rats [3]) | necropsy results (rats [3]) |
| --- | --- | --- | --- | --- |
| COC(F)(C(F)(F)C(F)(F)F)C(F)(C(F)(F)F)C(F)(F)F (centres unmarked) [CE1, NOVEC 7300] | >430 mg/L | 4.3 | – | – |
| NOVEC 7700 [Comparative Example CE2] | – | 6.6 | No adverse clinical observations | normal for all animals |
| FC(F)(F)C(F)(F)C(F)(F)C1(C(F)(F)F)CCOC1(F)C(F)(C(F)(F)F)C(F)(F)F (centres unmarked) [Example 2, 2-fluoro-3-(1,1,2,2,3,3,3-heptafluoropropyl)-2-[1,2,2,2-tetrafluoro-1-(trifluoromethyl)ethyl]-3-(trifluoromethyl)tetrahydrofuran] | – | 5.8 | – | – |
| FC(F)(F)C(F)(F)C1(F)OCCC1(C(F)(F)F)C(F)(F)F (centres unmarked) [Example 1, 2-fluoro-2-(1,1,2,2,2-pentafluoroethyl)-3,3-bis(trifluoromethyl)tetrahydrofuran] | >1000 ppmv | 4.4 | – | – |
